Patent US12606572B2, “Substituted heterocycles and uses thereof” (Kumquat Biosciences Inc., priority 2023, dated 2026)

biological target: T1, KRAS WT (Homo sapiens, UniProt P01116); test: HTRF assay, interaction of GST-tagged K-Ras with His-tagged hSOS1 (KRAS wildtype); type: biochemical; settings: <500 nM, read-out: Inhibition of KRAS WT (IC50)
T1 construct: made in house; host or cells: E. coli BL21 (DE3)
From the text: This assay can be also used to assess a selective inhibition or reduction of signaling output of a mutant Ras protein relative to a wildtype, or relative to a different mutant Ras protein. For example, the equilibrium interaction of wildtype KRAS or K-Ras mutant (e.g., wildtype or a mutant thereof) with SOS1 (e.g., hSOS1) can be assessed as a proxy or an indication for the ability of a subject compound to bind and inhibit Ras protein. The HTRF assay detects from (i) a fluorescence resonance energy transfer (FRET) donor (e.g., antiGST-Europium) that is bound to GST-tagged K-Ras mutant to (ii) a FRET acceptor (e.g., anti-6His-XL665) bound to a His-tagged hSOS1.
The assay buffer can contain ˜5 mM HEPES pH 7.4, ˜150 mM NaCl, ˜1 mM DTT, 0.05% BSA and 0.0025% (v/v) Igepal. A Ras working solution is prepared in an assay buffer containing typically a suitable amount of the protein construct (e.g., GST-tagged K-Ras mutant) and the FRET donor (e.g., antiGST-Eu(K) from Cisbio, France). A SOS1 working solution is prepared in an assay buffer containing suitable amount of the protein construct (e.g., His-hSOS1) and the FRET acceptor (e.g., anti-6His-XL665 from Cisbio, France). A suitable amount of the protein construct will depend on the range of activity or range of IC50 values being detected or under investigation. For detecting an IC50 within a range of 500 nM, the protein constructs of the same range of molarity can be utilized.
A fixed volume of DMSO with or without test compound is transferred into a 384-well plate. Ras working solution is added to all wells of the test plate. SOS1 working solution is added to all wells except for those that are subsequently filled with inhibitor control solution. Upon incubation for about 10 minutes or longer, the fluorescence is measured with a M1000Pro plate reader (Tecan) using HTRF detection (excitation 337 nm, emission 1: 620 nm, emission 2: 665 nm). Compounds are tested in duplicate at different concentrations (for example, 10 μM, 2.5 μM, 0.63 μM, 0.16 μM, 0.04 μM, 0.01 μM test compound). The ratiometric data (i.e., emission 2 divided by emission 1) is used to calculate IC50 values against Ras using GraphPad Prism (GraphPad software). Signaling output measured in terms of IC50 values can be obtained and a ratio of IC50 against one mutant relative to another mutant can be calculated. For instance, a selective reduction of K-Ras G12S signaling output can be evidenced by a ratio greater than one. In particular, a selective reduction of K-Ras G12S signaling relative to K-Ras WT signaling is evidenced if the ratio of IC50 (against K-Ras WT) to IC50 (against K-Ras G12S) is greater than 1.

T1 sequence (P01116 1-188 isoform P01116-2): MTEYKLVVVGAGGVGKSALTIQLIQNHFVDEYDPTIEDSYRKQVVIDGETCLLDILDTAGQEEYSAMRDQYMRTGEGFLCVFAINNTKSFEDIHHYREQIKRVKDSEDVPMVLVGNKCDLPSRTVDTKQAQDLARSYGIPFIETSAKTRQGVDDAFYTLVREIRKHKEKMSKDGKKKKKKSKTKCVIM

SMILES | IC50
CN1[C@H](C2CC2)[C@@H]1C(=O)N1CC(CN2CCOc3c(Cl)c(-c4ccc(F)c5sc(N)c(C#N)c45)c(F)c4nc(OC[C@@]56CCCN5C[C@H](F)C6)nc2c34)C1 (stereo partly drawn) [Compound 460, 2-amino-4-(8-chloro-4-((1-((2R,3R)-3-cyclopropyl-1-methylaziridine-2-carbonyl)azetidin-3-yl)methyl)-10-fluoro-2-(((2R,7aS)-2-fluorotetrahydro-1H-pyrrolizin-7a(5H)-yl)methoxy)-5,6-dihydro-4H-[1,4]oxazepino [5,6,7-de]quinazolin-9-yl)-7-fluorobenzo[b]thiophene-3-carbonitrile] | < 500 nM
N#Cc1cn(C(=O)N2CC(CN3CCOc4c(Cl)c(-c5ccc(F)c6sc(N)c(C#N)c56)c(F)c5nc(OC[C@@]67CCCN6C[C@H](F)C7)nc3c45)C2)cn1 [Compound 478, 1-(3-((9-(2-amino-3-cyano-7-fluorobenzo[b]thiophen-4-yl)-8-chloro-10-fluoro-2-(((2R,7aS)-2-fluorotetrahydro-1H-pyrrolizin-7a(5H)-yl)methoxy)-5,6-dihydro-4H-[1,4]oxazepino[5,6,7-de]quinazolin-4-yl)methyl)azetidine-1-carbonyl)-1H-imidazole-4-carbonitrile] | < 500 nM
C[C@H](O)[C@H]1COc2c(Cl)c(-c3ccc(F)c4sc(N)c(C#N)c34)c(F)c3nc(OC[C@@]45CCCN4C[C@H](F)C5)nc(c23)N1C1CC(CN(C)C(=O)n2ccnc2)C1 (stereo partly drawn) [Compound 482, N-((3-((5R)-9-(2-amino-3-cyano-7-fluorobenzo[b]thiophen-4-yl)-8-chloro-10-fluoro-2-(((2R,7aS)-2-fluorotetrahydro-1H-pyrrolizin-7a(5H)-yl)methoxy)-5-((S)-1-hydroxyethyl)-5,6-dihydro-4H-[1,4]oxazepino [5,6,7-de]quinazolin-4-yl)cyclobutyl)methyl)-N-methyl-1H-imidazole-1-carboxamide] | < 500 nM
CC1([C@@H]2[C@H](CN3CCOc4c(Cl)c(-c5ccc(F)c6sc(N)c(C#N)c56)c(F)c5nc(OC[C@@]67CCCN6C[C@H](F)C7)nc3c45)CN2C(=O)n2ccnc2)CC1 [Compound 485, 4-(4-(((2S,3R)-1-(1H-imidazole-1-carbonyl)-2-(1-methylcyclopropyl)azetidin-3-yl)methyl)-8-chloro-10-fluoro-2-(((2R,7aS)-2-fluorotetrahydro-1H-pyrrolizin-7a(5H)-yl)methoxy)-5,6-dihydro-4H-[1,4]oxazepino [5,6,7-de]quinazolin-9-yl)-2-amino-7-fluorobenzo[b] thiophene-3-carbonitrile] | < 500 nM

The remaining lines, values ahead:

IC50 | SMILES
< 500 nM | C[C@H]1COc2c(Cl)c(-c3ccc(F)c4sc(N)c(C#N)c34)c(F)c3nc(OC[C@@]45CCCN4C[C@H](F)C5)nc(c23)N1C[C@@H]1CN(C(=O)n2ccnc2)[C@@H]1C1(C)CC1 (single isomer, unassigned) [Compound 473]
< 500 nM | Cc1cn(C(=O)N2CC[C@@H](N3C[C@H](C)Oc4cc(-c5cc(N)c(F)c(C)c5C(F)(F)F)c(F)c5nc(OC[C@@]67CCCN6C[C@H](F)C7)nc3c45)[C@H]2C)c(C)n1 [Compound 415, ((2R,3R)-3-((S)-9-(5-amino-4-fluoro-3-methyl-2-(trifluoromethyl)phenyl)-10-fluoro-2-(((2R,7aS)-2-fluorotetrahydro-1H-pyrrolizin-7a(5H)-yl)methoxy)-6-methyl-5,6-dihydro-4H-[1,4]oxazepino [5,6,7-de]quinazolin-4-yl)-2-methylpyrrolidin-1-yl)(2,4-dimethyl-1H-imidazol-1-yl)methanone]
< 500 nM | CC(CN(C)C(=O)n1ccnc1)N1c2nc(OC[C@@]34CCCN3C[C@H](F)C4)nc3c(F)c(-c4ccc(F)c5sc(N)c(C#N)c45)c(Cl)c(c23)OC[C@@H]1[C@H](C)O (stereo partly drawn) [Compound 467, N-(2-((5R)-9-(2-amino-3-cyano-7-fluorobenzo[b]thiophen-4-yl)-8-chloro-10-fluoro-2-(((2R,7aS)-2-fluorotetrahydro-1H-pyrrolizin-7a(5H)-yl)methoxy)-5-((S)-1-hydroxyethyl)-5,6-dihydro-4H-[1,4]oxazepino[5,6,7-de]quinazolin-4-yl)propyl)-N-methyl-1H-imidazole-1-carboxamide]
